Assay results: publication PMC3510438, “The transmembrane tyrosines Y56, Y91 and Y167 play important roles in determining the affinity and transport rate of the rabbit proton-coupled peptide transporter PepT1” (The International Journal of Biochemistry & Cell Biology, 2009)
Numbering of substitutions follows the chain as printed.

What was measured:
Test in all cases: Uptake of tracer [3H]-D-Phe-L-Gln into Xenopus oocytes
Type in all cases: cell-based, rabbit
[1] = target: T1, T58Y-rPepT1 (Oryctolagus cuniculus, UniProt P36836, T58Y); details: both pHout 5.5 and 7.4
T1 construct: expressed in transfected cells; host or cells: Xenopus laevis oocytes injected with cRNA
T1 sequence (P36836 1-707 T58Y): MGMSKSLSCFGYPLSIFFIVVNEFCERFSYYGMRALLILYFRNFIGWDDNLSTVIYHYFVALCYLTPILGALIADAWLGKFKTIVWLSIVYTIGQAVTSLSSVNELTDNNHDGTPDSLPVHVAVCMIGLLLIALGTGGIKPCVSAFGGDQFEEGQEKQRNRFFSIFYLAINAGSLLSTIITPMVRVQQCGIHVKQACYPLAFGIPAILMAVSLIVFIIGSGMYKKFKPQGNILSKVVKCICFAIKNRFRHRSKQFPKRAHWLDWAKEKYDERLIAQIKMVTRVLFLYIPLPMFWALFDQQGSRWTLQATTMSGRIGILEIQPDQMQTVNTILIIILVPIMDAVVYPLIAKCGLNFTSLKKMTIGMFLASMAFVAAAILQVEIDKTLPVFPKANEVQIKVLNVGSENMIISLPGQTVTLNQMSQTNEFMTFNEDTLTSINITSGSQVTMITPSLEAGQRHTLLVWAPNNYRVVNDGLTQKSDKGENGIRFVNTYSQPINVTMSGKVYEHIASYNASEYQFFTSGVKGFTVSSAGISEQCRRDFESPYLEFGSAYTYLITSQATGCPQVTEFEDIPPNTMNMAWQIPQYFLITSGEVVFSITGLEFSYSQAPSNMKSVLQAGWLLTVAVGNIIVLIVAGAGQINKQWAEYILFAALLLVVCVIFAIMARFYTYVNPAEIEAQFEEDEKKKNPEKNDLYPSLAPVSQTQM
Method: (§1) rPepT1 constructs were linearised with XbaI (New England Biolabs, UK) and cRNA generated by in vitro transcription (T7 mMessage mMachine, Ambion, Cambridgeshire, UK). Xenopus laevis oocytes were obtained under MS222 anaesthesia (0.2%, w/v) in accordance with the UK Animals (Scientific Procedures) Act, 1986, and maintained at 18 °C in modified Barth's medium (88 mM NaCl, 1 mM KCl, 0.82 mM MgSO4, 2.4 mM NaHCO3, 0.42 mM CaCl2, 10 mM Hepes, 5 mM sodium pyruvate, 50 μg ml^−1 gentamicin (Fluka, Poole, UK), adjusted to pH 7.6 with 1 M NaOH). Transport measurements were performed at least 72 h after micro-injection of oocytes with 27nl cRNA (1 μg/μl), with medium changed daily.
(§2) Uptake of [^3H]-D-Phe-L-Gln (17.4 Ci/mmole, custom synthesised, Cambridge Research Biochemicals, Stockton-on-Tees, UK) was performed as previously described ([Meredith, 2004]). Briefly, 5 oocytes were incubated in 100 μl of uptake medium (95 mM NaCl, 2 mM KCl, 1 mM CaCl2, 0.42 mM MgCl2, 10 mM Tris/Hepes pH 7.4 or Tris/Mes pH 5.5) with tracer (0.4 μM) [^3H]-D-Phe-L-Gln. After incubation, the oocytes were washed sequentially five times in 1 ml of ice-cold 120 mM NaCl solution, lysed individually with 100 μl 2% (w/v) SDS and liquid scintillation counted. As a control non-injected oocytes were also incubated in uptake medium with D-Phe-L-Gln as above.

[2] = target: T2, Y56F-rPepT1 (Oryctolagus cuniculus, UniProt P36836, Y56F); details: pHout 5.5; 1 h
T2 construct: expressed in transfected cells; host or cells: Xenopus laevis oocytes injected with cRNA
T2 sequence (P36836 1-707 Y56F): T1 sequence (P36836 1-707 T58Y) with Y56F, Y58T
Method: as §1, §2

[3] = target: T3, wild-type rPepT1 (Oryctolagus cuniculus, UniProt P36836); details: 0.4 μM tracer; pHout 5.5; 1 h; non-injected control subtracted
T3 construct: expressed in transfected cells; host or cells: Xenopus laevis oocytes injected with cRNA
T3 sequence (P36836 1-707): T1 sequence (P36836 1-707 T58Y) with Y58T
Method: as §1, §2

- reduction of transport function compared to the wild-type [1]: > 70%
- decrease in rate of uptake compared to the wild-type [2]: ~90%
- uptake [3]: 342 ± 37 fmol peptide/(oocyte h)
Substance: [^3H]-D-Phe-L-Gln
